{
  "source": "patent US20070092577A1",
  "about": "“Dietary calcium for reducing the production of reactive oxygen species” (University of Tennessee Research Foundation, priority 2005, published 2007)",
  "key": {"[1]": {"tested_on": "IL-6", "test": "IL-6 expression in RAW 264 macrophages", "type": "cell-based", "details": "added to calcitriol; macrophages cultured alone", "procedure": "(§1) RAW 264 macrophages and 3T3-L1 preadipocytes (American Type Culture Collection) were incubated at a density of 8000 cells/cm2 (10 cm2 dish) and grown in Dulbecco's modified Eagle's medium (DMEM) containing 10% FBS and antibiotics (adipocyte medium) at 37° C. in 5% CO2 in air. Confluent 3T3-L1 preadipocytes were induced to differentiate with a standard differentiation medium consisting of DMEM-F10 (1:1, vol/vol) medium supplemented with 1% FBS, 1 μM dexamethasone, IBMX (0.5 mM) and antibiotics (1% Penicillin-Streptomycin). Preadipocytes were maintained in this differentiation medium for 3 days and subsequently cultured in adipocyte medium. Cultures were re-fed every 2-3 days to allow 90% cells to reach fully differentiation for 3T3-L1 adipocytes or grow to a confluence for RAW 264 before conducting chemical treatment.\n(§2) Human adipocytes (Zen-Bio, Inc.), 3T3-L1 adipocytes, RAW264 macrophages were obtained and co-cultured by using transwell inserts with 0.4 μm porous membranes (Corning) to separate adipocytes and macrophages. All data are expressed as mean±SEM. Data were evaluated for statistical significance by analysis of one-way or two-way variance (ANOVA; means with different letter differ, p<0.05).\n(§3) Adipocyte and muscle 18s, CD14, TNFα, MIP, M-CSF, IL-6 and MCP-1 were quantitatively measured using a Smart Cycler Real Time PCR System (Cepheid, Sunnyvale, Calif.) with a TaqMan 1000 Core Reagent Kit (Applied Biosystems, Branchburg, N.J.). The primers and probe sets were obtained from Applied Biosystems TaqMan® Assays-on-Demand™ Gene Expression primers and probe set collection according to manufacture's instruction. […] Reactions of quantitative RT-PCR for standards and unknown samples were also performed according to the instructions of Smart Cycler System (Cepheid, Sunnyvale, Calif.) and TaqMan Real Time PCR Core Kit (Applied Biosystems, Branchburg, N.J.). The mRNA quantitation for each sample was further normalized using the corresponding 18s quantitation."}, "[2]": {"tested_on": "TNFα", "test": "TNFα expression in RAW 264 macrophages", "type": "cell-based", "details": "added to calcitriol; macrophages cultured alone", "procedure": "as §1, §2, §3"}, "[3]": {"tested_on": "cyclin A", "test": "Cyclin A expression in 3T3-L1 adipocytes", "type": "cell-based, murine", "details": "added to glucose 30 mmol/L, 48 hours; nifedipine 10 μmol/L", "procedure": "(§4) 3T3-L1 preadipocytes were incubated at a density of 8000 cells/cm^2 (10 cm^2 dish) and grown in Dulbecco's modified Eagle's medium (DMEM) containing 10% FBS and antibiotics (adipocyte medium) at 37° C. in 5% CO2 in air. Confluent preadipocytes were induced to differentiate with a standard differentiation medium consisting of DMEM-F 10 (1:1, vol/vol) medium supplemented with 1% FBS, 1 μM dexamethasone, IBMX (0.5 mM) and antibiotics (1% Penicillin-Streptomycin). Preadipocytes were maintained in this differentiation medium for 3 days and subsequently cultured in adipocyte medium. Cultures were re-fed every 2-3 days to allow 90% of cells to reach full differentiation before conducting chemical treatment. Chemicals were freshly diluted in adipocyte medium before treatment. […] Cell viability was measured via trypan blue exclusion. Adipocyte 18s, cyclin A, NADPH oxidase, and UCP2 were quantitatively measured using a Smart Cycler Real Time PCR System (Cepheid, Sunnyvale, Calif.) with a TaqMan 1000 Core Reagent Kit (Applied Biosystems, Branchburg, N.J.). […] Reactions of quantitative RT-PCR for standards and unknown samples were also performed according to the instructions of Smart Cycler System (Cepheid, Sunnyvale, Calif.) and TaqMan Real Time PCR Core Kit (Applied Biosystems, Branchburg, N.J.). The mRNA quantitation for each sample was further normalized using the corresponding 18s quantitation."}, "[4]": {"tested_on": "ROS production in cultured 3T3-L1 adipocytes", "test": "ROS production in cultured adipocytes (H2-DCFDA)", "type": "cell-based, murine", "details": "48 hours", "procedure": "3T3-L1 preadipocytes were incubated at a density of 8000 cells/cm^2 (10 cm^2 dish) and grown in Dulbecco's modified Eagle's medium (DMEM) containing 10% FBS and antibiotics (adipocyte medium) at 37° C. in 5% CO2 in air. Confluent preadipocytes were induced to differentiate with a standard differentiation medium consisting of DMEM-F 10 (1:1, vol/vol) medium supplemented with 1% FBS, 1 μM dexamethasone, IBMX (0.5 mM) and antibiotics (1% Penicillin-Streptomycin). Preadipocytes were maintained in this differentiation medium for 3 days and subsequently cultured in adipocyte medium. Cultures were re-fed every 2-3 days to allow 90% of cells to reach full differentiation before conducting chemical treatment. Chemicals were freshly diluted in adipocyte medium before treatment. Cells were washed with fresh adipocyte medium, re-fed with medium containing the different treatments, and incubated at 37° C. in 5% CO2 in air before analysis. Cell viability was measured via trypan blue exclusion. […] Cells were loaded with H2-DCFDA (2 μmol/L) 30 minute before the end of the incubation period (48 h). After washing twice with PBS, cells were scraped and disrupted by sonication on ice (20s). Fluorescence (emission 543 nm or 527 nm) and DNA content were then measured as described previously. The intensity of fluorescence was expressed as arbitary units per ng DNA."}, "[5]": {"tested_on": "3T3-L1 adipocytes", "test": "DNA synthesis / cell proliferation (CyQUANT)", "type": "cell-based, murine", "details": "48 hours", "procedure": "3T3-L1 preadipocytes were incubated at a density of 8000 cells/cm^2 (10 cm^2 dish) and grown in Dulbecco's modified Eagle's medium (DMEM) containing 10% FBS and antibiotics (adipocyte medium) at 37° C. in 5% CO2 in air. Confluent preadipocytes were induced to differentiate with a standard differentiation medium consisting of DMEM-F 10 (1:1, vol/vol) medium supplemented with 1% FBS, 1 μM dexamethasone, IBMX (0.5 mM) and antibiotics (1% Penicillin-Streptomycin). Preadipocytes were maintained in this differentiation medium for 3 days and subsequently cultured in adipocyte medium. Cultures were re-fed every 2-3 days to allow 90% of cells to reach full differentiation before conducting chemical treatment. Chemicals were freshly diluted in adipocyte medium before treatment. Cells were washed with fresh adipocyte medium, re-fed with medium containing the different treatments, and incubated at 37° C. in 5% CO2 in air before analysis. Cell viability was measured via trypan blue exclusion. Cells were plated in DMEM with different treatment in duplicate in 96-well plates. After 48 h, a CyQUANT Cell Proliferation Kit (Molecular Probes, Eugene, Oreg.) was used following the manufacturer's protocol a microplate fluorometer (Packard Instrument Company, Inc., Downers Grove, Ill.) was used to measure CyQUANT fluorescence. Cell viability was determined by Trypan blue exclusion examination."}, "[6]": {"tested_on": "NADPH oxidase", "test": "NADPH oxidase expression in 3T3-L1 adipocytes", "type": "cell-based, murine", "details": "added to glucose 30 mmol/L, 48 hours; nifedipine 10 μmol/L", "procedure": "as §4"}, "[7]": {"tested_on": "Mitochondrial potential in cultured wild-type 3T3-L1 adipocytes", "test": "Mitochondrial membrane potential (JC-1)", "type": "cell-based, murine", "details": "GDP 100 μmol/L with H2O2 100 nmol/L, 48 hours", "procedure": "3T3-L1 preadipocytes were incubated at a density of 8000 cells/cm^2 (10 cm^2 dish) and grown in Dulbecco's modified Eagle's medium (DMEM) containing 10% FBS and antibiotics (adipocyte medium) at 37° C. in 5% CO2 in air. Confluent preadipocytes were induced to differentiate with a standard differentiation medium consisting of DMEM-F 10 (1:1, vol/vol) medium supplemented with 1% FBS, 1 μM dexamethasone, IBMX (0.5 mM) and antibiotics (1% Penicillin-Streptomycin). Preadipocytes were maintained in this differentiation medium for 3 days and subsequently cultured in adipocyte medium. Cultures were re-fed every 2-3 days to allow 90% of cells to reach full differentiation before conducting chemical treatment. Chemicals were freshly diluted in adipocyte medium before treatment. […] Cell viability was measured via trypan blue exclusion.\nMitochondrial membrane potential was analyzed fluorometrically with a lipophilic cationic dye JC-1 (5,5′,6,6′-tetrachloro-1,1′,3,3′-tetraethylbenzimidazol carbocyanine iodide) using a mitochondrial potential detection kit (Biocarta, San Diego, Calif.). Mitochondrial potential was determined as the ratio of red fluorescence (excitation 550 nm, emission 600 mn) and green fluorescence (excitation 485 nm, emission 535 nm) using a fluorescence microplate reader."}, "[8]": {"tested_on": "TNFα", "test": "TNFα expression in differentiated 3T3-L1 adipocytes", "type": "cell-based, mouse", "details": "nifedipine 10 μmol/L alone, 48 h", "procedure": "3T3-L1 pre-adipocytes were incubated at a density of 8000 cells/cm^2 (10 cm^2 dish) and grown in Dulbecco's modified Eagle's medium (DMEM) containing 10% FBS and antibiotics (adipocyte medium) at 37° C. in 5% CO2 in air. Confluent pre-adipocytes were induced to differentiate with a standard differentiation medium consisting of DMEM-F10 (1:1, vol/vol) medium supplemented with 1% fetal bovine serum (FBS), 1 μM dexamethasone, isobutylmethylxanthine (IBMX) (0.5 mM) and antibiotics (1% Penicillin-Streptomycin). Pre-adipocytes were maintained in this differentiation medium for 3 days and subsequently cultured in adipocyte medium. Cultures were re-fed every 2-3 days to allow 90% cells to reach fully differentiation before conducting chemical treatment. […] Cell viability was measured via trypan blue exclusion. Adipocyte and muscle 18s, TNFα, IL-6, IL-8, IL-15 and adiponectin were quantitatively measured using a smart cycler real-time PCR system (Cepheid, Sunnyvale, Calif.) with a TaqMan 1000 Core Reagent Kit (Applied Biosystems, Branchburg, N.J.). […] Reactions of quantitative RT-PCR for standards and unknown samples were also performed according to the instructions of Smart Cycler System (Cepheid, Sunnyvale, Calif.) and TaqMan Real Time PCR Core Kit (Applied Biosystems, Branchburg, N.J.). The mRNA quantitation for each sample was further normalized using the corresponding 18s quantitation."}, "[9]": {"tested_on": "IL-15", "test": "IL-15 expression in differentiated Zen-bio human adipocytes", "type": "cell-based", "details": "10 nmol/L 1α, 25-(OH)2-D3 or 10 μmol/L nifedipine, 48 h; p=0.473", "procedure": "(§5) Human pre-adipocytes used in this study were supplied by Zen-Bio (Research Triangle, N.C.). […] The cells are isolated from the stromal vascular fraction of human subcutaneous adipose tissue and differentiated in vitro as follows: […] Preadipocytes were maintained in this differentiation medium for 3 days and subsequently cultured in adipocyte medium in which BRL49653 and MIX were omitted. Cultures were re-fed every 2-3 days till fully differentiated. Cells were incubated in serum free medium overnight before chemical treatment. Chemicals were freshly diluted in adipocyte medium before treatment. […] Cell viability was measured via trypan blue exclusion. Adipocyte and muscle 18s, TNFα, IL-6, IL-8, IL-15 and adiponectin were quantitatively measured using a smart cycler real-time PCR system (Cepheid, Sunnyvale, Calif.) with a TaqMan 1000 Core Reagent Kit (Applied Biosystems, Branchburg, N.J.). […] Reactions of quantitative RT-PCR for standards and unknown samples were also performed according to the instructions of Smart Cycler System (Cepheid, Sunnyvale, Calif.) and TaqMan Real Time PCR Core Kit (Applied Biosystems, Branchburg, N.J.). The mRNA quantitation for each sample was further normalized using the corresponding 18s quantitation."}, "[10]": {"tested_on": "adiponectin", "test": "Adiponectin expression in differentiated Zen-bio human adipocytes", "type": "cell-based", "details": "10 nmol/L 1α, 25-(OH)2-D3 or 10 μmol/L nifedipine, 48 h; p=0.377", "procedure": "as §5"}, "[11]": {"details": "added to glucose 30 mmol/L, nifedipine 10 μmol/L"}},
  "data": [
    {"smiles": "O=[N+]([O-])c1ccc(O)c([N+](=O)[O-])c1", "note": "[DNP]", "values": [
      {"measurement": "effect on calcitriol stimulated IL-6 expression", "setting": "[1]", "value": "blocked"},
      {"measurement": "effect on calcitriol stimulated TNFα expression", "setting": "[2]", "value": "blocked"}
    ]},
    {"smiles": "Nc1nc2c(ncn2[C@@H]2O[C@H](COP(=O)(O)OP(=O)(O)O)[C@@H](O)[C@H]2O)c(=O)[nH]1", "note": "[GDP]", "values": [
      {"measurement": "effect on glucose stimulated cyclin A expression", "setting": "[3]", "value": "augmented"},
      {"measurement": "increase of ROS production compared to H2O2 treatment alone", "setting": "[4]; GDP 100 μmol/L with H2O2 100 nmol/L, p<0.01", "value": 24, "unit": "%"},
      {"measurement": "effect on high glucose induced ROS production", "setting": "[4]; [11]", "value": "further stimulated ROS production compared to glucose alone"},
      {"measurement": "augmentation of the stimulation of cell proliferation by H2O2", "setting": "[5]; GDP 100 μmol/L with H2O2 100 nmol/L, p<0.005", "value": 183, "unit": "%"},
      {"measurement": "effect on glucose induced DNA synthesis", "setting": "[5]; [11]", "value": "augmented"},
      {"measurement": "effect on NADPH oxidase expression", "setting": "[6]", "value": "suppressed"},
      {"measurement": "augmentation of the H2O2 effect on mitochondrial potential", "setting": "[7]", "value": 10, "unit": "%"}
    ]},
    {"smiles": "COC(=O)C1=C(C)NC(C)=C(C(=O)OC)C1c1ccccc1[N+](=O)[O-]", "note": "[nifedipine]", "values": [
      {"measurement": "inhibition of H2O2 induced ROS production", "setting": "[4]; nifedipine 10 μmol/L with H2O2 100 nmol/L, p<0.003", "value": 25, "unit": "%"},
      {"measurement": "effect on TNFα expression, alone", "setting": "[8]", "value": "no effect"},
      {"measurement": "effect on IL-15 expression", "setting": "[9]", "value": "no effect"},
      {"measurement": "effect on adiponectin expression", "setting": "[10]", "value": "no effect"}
    ]}
  ]
}
